From the supplement of paper PMC13380429

Tests used:
Details in all cases: 72 h
[1] = test system: HepG2; test: relative viability EC50 (midpoint between 100% and the lowest measured viability); higher = less toxic
[2] = test system: U2OS; test: as above
[3] = test system: Vero E6; test: as above
[4] = test system: Caco-2; test: as above
[5] = test system: Calu-3; test: as above
[6] = test system: HepG2; test: drug sensitivity score (DSS) for viability; higher = more toxic; extreme values may be limits of the assay
[7] = test system: U2OS; test: as above
[8] = test system: Vero E6; test: as above
[9] = test system: Caco-2; test: as above
[10] = test system: Calu-3; test: as above
[11] = test system: HepG2; test: cell viability relative to DMSO; higher = less toxic
[12] = test system: U2OS; test: as above
[13] = test system: Vero E6; test: as above
[14] = test system: Caco-2; test: as above
[15] = test system: Calu-3; test: as above

SMILES | relative viability EC50 [1] | relative viability EC50 [2] | relative viability EC50 [3] | relative viability EC50 [4] | relative viability EC50 [5] | drug sensitivity score [6] | drug sensitivity score [7] | drug sensitivity score [8] | drug sensitivity score [9] | drug sensitivity score [10] | cell viability ([11]; 1 nM) | cell viability ([11]; 10 nM) | cell viability ([11]; 100 nM) | cell viability ([11]; 1000 nM) | cell viability ([11]; 10000 nM) | cell viability ([12]; 1 nM) | cell viability ([12]; 10 nM) | cell viability ([12]; 100 nM) | cell viability ([12]; 1000 nM) | cell viability ([12]; 10000 nM) | cell viability ([13]; 1 nM) | cell viability ([13]; 10 nM) | cell viability ([13]; 100 nM) | cell viability ([13]; 1000 nM) | cell viability ([13]; 10000 nM) | cell viability ([14]; 1 nM) | cell viability ([14]; 10 nM) | cell viability ([14]; 100 nM) | cell viability ([14]; 1000 nM) | cell viability ([14]; 10000 nM) | cell viability ([15]; 1 nM) | cell viability ([15]; 10 nM) | cell viability ([15]; 100 nM) | cell viability ([15]; 1000 nM) | cell viability ([15]; 10000 nM)
CN1CCN(CCc2ccc(Cl)c(Cl)c2)CC1 [BD-1063] | > 10 µM | > 10 µM | > 10 µM | > 10 µM | > 10 µM | 0.4 | 0 | 0 | 0 | 0 | 108% | 102% | 103% | 92.4% | 87.7% | 94.2% | 100% | 93.9% | 100% | 95.3% | 105% | 101% | 105% | 95.1% | 93.9% | 98.6% | 100% | 95% | 91.3% | 92.2% | 91.3% | 96.2% | 102% | 96.9% | 101%
CCC[C@@H]1CC(=O)N([C@@H](CC)C(N)=O)C1 [Brivaracetam] | > 10 µM | > 10 µM | > 10 µM | > 10 µM | > 10 µM | 0 | 0 | 0 | 0 | 0 | 101% | 96.2% | 101% | 97.9% | 114% | 102% | 98% | 102% | 96.2% | 99.6% | 89.6% | 96.2% | 88.3% | 97.5% | 107% | 89.1% | 94.5% | 93.8% | 102% | 98.8% | 100% | 103% | 92.7% | 100% | 97.2%
O=C(O)c1ccc(/C=C2\SC(=S)N(c3cccc(C(F)(F)F)c3)C2=O)cc1 [CFTRinh-172] | > 10 µM | > 10 µM | > 10 µM | > 10 µM | > 10 µM | 0 | 0 | 0 | 0 | 0 | 111% | 104% | 96.2% | 94.7% | 106% | 95.2% | 101% | 94.2% | 104% | 99.4% | 96.3% | 96.3% | 96.4% | 93.9% | 107% | 104% | 100% | 86.7% | 99.4% | 99.9% | 102% | 99.9% | 97.8% | 106% | 116%
O=C(O)C1=CCCN(CCOC(c2ccc(C(F)(F)F)cc2)c2ccc(C(F)(F)F)cc2)C1 [CI-966] | > 10 µM | > 10 µM | > 10 µM | > 10 µM | > 10 µM | 0 | 0 | 0 | 0 | 0 | 98.7% | 99.3% | 104% | 95.5% | 109% | 101% | 107% | 106% | 98.7% | 98% | 98.2% | 99.4% | 101% | 97.8% | 99.4% | 101% | 101% | 105% | 100% | 90.4% | 97.6% | 101% | 102% | 98.5% | 96.4%
Cc1cc(NC(=O)C(c2ccccc2)N2CCCc3ccccc32)no1 (stereo not given) [CIM-0216] | > 10 µM | > 10 µM | > 10 µM | > 10 µM | > 10 µM | 0 | 0 | 0 | 0 | 0 | 104% | 103% | 103% | 90.1% | 98.3% | 98.7% | 104% | 97.4% | 101% | 97% | 104% | 99.2% | 96.3% | 101% | 101% | 97.1% | 101% | 98.2% | 97.4% | 114% | 103% | 98.5% | 87.7% | 113% | 111%
COc1cccc(/C=N/N=C/c2cccc(OC)c2)c1 [DMeOB] | > 10 µM | > 10 µM | > 10 µM | > 10 µM | > 10 µM | 0 | 0 | 0 | 0 | 0 | 110% | 93.3% | 103% | 98.4% | 94.9% | 101% | 102% | 97.5% | 107% | 99.3% | 109% | 99.8% | 103% | 99.2% | 103% | 96.4% | 106% | 96.9% | 104% | 103% | 101% | 114% | 99.6% | 111% | 105%
CC(C)(C)c1cc(C(=O)/C(C#N)=N/Nc2cccc(Cl)c2)no1 [ESI-09] | 3.4 µM | > 10 µM | > 10 µM | 2.75 µM | > 10 µM | 3.5 | 0.2 | 0 | 3.9 | 0 | 109% | 102% | 102% | 103% | 31.2% | 98.1% | 96.1% | 98.4% | 96.1% | 87.6% | 90% | 94.2% | 91% | 99.3% | 83.3% | 99.8% | 96.1% | 104% | 96.6% | 37% | 103% | 93.7% | 91.9% | 102% | 95.9%
CN[C@@H](C)C(=O)N[C@H](C(=O)N1CCC[C@H]1C(=O)Nc1snnc1-c1ccccc1)C1CCCCC1 [GDC-0152] | > 10 µM | > 10 µM | > 10 µM | > 10 µM | > 10 µM | 0 | 0 | 0 | 0 | 1.1 | 105% | 105% | 99.6% | 97.4% | 96% | 98.1% | 109% | 95.7% | 100% | 94.3% | 97% | 98.9% | 102% | 103% | 106% | 98.4% | 104% | 98.9% | 102% | 92.2% | 104% | 106% | 97.4% | 87.9% | 84.9%
Cc1cc(OCc2nc(-c3ccccc3Cl)cs2)ccc1OCC(=O)O [GPR120-modulator-1] | > 10 µM | > 10 µM | > 10 µM | > 10 µM | > 10 µM | 0 | 0 | 0 | 0 | 0 | 104% | 93.4% | 101% | 101% | 92.8% | 92.3% | 96.8% | 92.2% | 102% | 94.3% | 101% | 102% | 102% | 97.9% | 97.1% | 102% | 97.5% | 103% | 98.5% | 92.8% | 96.4% | 99.8% | 99.6% | 110% | 86.9%
CC(C)c1onc(-c2c(Cl)cccc2Cl)c1COc1ccc(/C=C/c2cccc(C(=O)O)c2)c(Cl)c1 [GW-4064] | > 10 µM | > 10 µM | > 10 µM | > 10 µM | > 10 µM | 0 | 0 | 0 | 1.4 | 0 | 105% | 103% | 92.4% | 99.2% | 93.8% | 98.2% | 106% | 96.4% | 93.3% | 97.7% | 95.5% | 99.8% | 94% | 93.8% | 95.7% | 94% | 99.4% | 102% | 91% | 81.4% | 93.9% | 107% | 103% | 102% | 96.5%
CCC(=O)NC[C@H](Cc1ccc(OCCc2nc(-c3ccccc3)oc2C)cc1)N/C(C)=C\C(=O)c1ccc(C(F)(F)F)cc1 [GW-6471] | > 10 µM | > 10 µM | > 10 µM | > 10 µM | > 10 µM | 0 | 0 | 0 | 0 | 0 | 97.3% | 99.5% | 93.8% | 101% | 109% | 96.6% | 104% | 101% | 100% | 95.4% | 98.6% | 97.6% | 96.1% | 89.3% | 94.8% | 94.5% | 102% | 106% | 97.8% | 93.6% | 101% | 94.7% | 103% | 97.4% | 102%
C[N+](C)(C)CCCCCNCC12CC3CC(CC(C3)C1)C2 [IEM1460] | > 10 µM | > 10 µM | > 10 µM | > 10 µM | > 10 µM | 0 | 0 | 0 | 0.1 | 0 | 101% | 85.2% | 104% | 93.9% | 106% | 94.1% | 102% | 99% | 103% | 95.7% | 105% | 91% | 105% | 92.5% | 103% | 96.2% | 103% | 95% | 99.6% | 88.1% | 91.1% | 104% | 96.1% | 98.2% | 98.4%
COC(=O)c1csc(C(=O)c2c[nH]c3ccccc23)n1 [ITE] | > 10 µM | > 10 µM | > 10 µM | > 10 µM | > 10 µM | 2 | 0 | 0 | 0 | 0 | 104% | 112% | 92.8% | 84.8% | 85.5% | 101% | 104% | 97.1% | 102% | 96.3% | 95% | 96.1% | 92.1% | 98.6% | 97.4% | 96.1% | 105% | 101% | 108% | 94.2% | 105% | 101% | 103% | 105% | 97.5%
CCCCCOc1c(OC)ccc2cc(C(=O)NCc3ccc4c(c3)OCO4)c(=O)[nH]c12 [JTE-907] | > 10 µM | > 10 µM | > 10 µM | > 10 µM | > 10 µM | 0 | 0 | 0 | 0.8 | 0 | 95% | 97.4% | 100% | 115% | 103% | 100% | 99.7% | 103% | 99.5% | 97.4% | 90.8% | 99.8% | 94.5% | 94.3% | 110% | 90.9% | 91.1% | 99.9% | 101% | 75.7% | 102% | 93.9% | 97.3% | 105% | 90.8%
